Data reported in PubChem BioAssay (NCI).
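Five compound concentrations were applied to cells in 96-well plates for 48 hours; endpoints were derived by simple linear interpolation of the resulting dose-response curve. At the TGI there is no net growth.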

Legend:
Assay in all cases: NCI anticancer screen, dose series, 48 h
786-0 renal = system: 786-0 renal
A549 NSCLC = system: A549 NSCLC
ACHN renal = system: ACHN renal
BT-549 breast = system: BT-549 breast
CAKI-1 renal = system: CAKI-1 renal
CCRF-CEM leukemia = system: CCRF-CEM leukemia
COLO 205 colon = system: COLO 205 colon
DU-145 prostate = system: DU-145 prostate
EKVX NSCLC = system: EKVX NSCLC
HCC-2998 colon = system: HCC-2998 colon
HCT-116 colon = system: HCT-116 colon
HCT-15 colon = system: HCT-15 colon
HL-60(TB) leukemia = system: HL-60(TB) leukemia
HOP-62 NSCLC = system: HOP-62 NSCLC
HOP-92 NSCLC = system: HOP-92 NSCLC
HS 578T breast = system: HS 578T breast
HT29 colon = system: HT29 colon
IGROV1 ovarian = system: IGROV1 ovarian
K-562 leukemia = system: K-562 leukemia
KM12 colon = system: KM12 colon
LOX IMVI melanoma = system: LOX IMVI melanoma
M14 melanoma = system: M14 melanoma
MALME-3M melanoma = system: MALME-3M melanoma
MDA-MB-231 breast = system: MDA-MB-231 breast
MDA-MB-435 = system: MDA-MB-435
MDA-N = system: MDA-N
MOLT-4 leukemia = system: MOLT-4 leukemia
NCI-H226 lung = system: NCI-H226 lung
NCI-H23 lung = system: NCI-H23 lung
NCI-H460 lung = system: NCI-H460 lung
NCI-H522 lung = system: NCI-H522 lung
NCI/ADR-RES ovarian = system: NCI/ADR-RES ovarian
OVCAR-3 ovarian = system: OVCAR-3 ovarian
OVCAR-4 ovarian = system: OVCAR-4 ovarian
OVCAR-5 ovarian = system: OVCAR-5 ovarian
OVCAR-8 ovarian = system: OVCAR-8 ovarian
PC-3 prostate = system: PC-3 prostate
RPMI-8226 leukemia = system: RPMI-8226 leukemia
RXF 393 renal = system: RXF 393 renal
SF-268 CNS = system: SF-268 CNS
SF-295 CNS = system: SF-295 CNS
SF-539 CNS = system: SF-539 CNS
SK-MEL-2 melanoma = system: SK-MEL-2 melanoma
SK-MEL-28 melanoma = system: SK-MEL-28 melanoma
SK-MEL-5 melanoma = system: SK-MEL-5 melanoma
SK-OV-3 ovarian = system: SK-OV-3 ovarian
SN12C renal = system: SN12C renal
SNB-19 CNS = system: SNB-19 CNS
SNB-75 CNS = system: SNB-75 CNS
SR leukemia = system: SR leukemia
SW-620 colon = system: SW-620 colon
T-47D breast = system: T-47D breast
TK-10 renal = system: TK-10 renal
U251 CNS = system: U251 CNS
UACC-257 melanoma = system: UACC-257 melanoma
UACC-62 melanoma = system: UACC-62 melanoma
A498 renal = system: A498 renal
MCF7 breast = system: MCF7 breast
UO-31 renal = system: UO-31 renal

Measured: TGI

C=CCN(c1cc(OCc2ccccc2)c2c(c1)c(C)cn2S(=O)(=O)c1ccccc1)S(C)(=O)=O
not listed: A498 renal | MCF7 breast | UO-31 renal
> 100 µM: all other assays above

COc1cc(S(=O)(=O)Nc2ccc(-c3csc(/N=C\C=C\c4ccccc4)n3)cc2)ccc1Cl
80.7 µM: T-47D breast
50.5 µM: A498 renal
50.4 µM: CCRF-CEM leukemia
75.9 µM: HOP-92 NSCLC
59.8 µM: SF-539 CNS
80.2 µM: RXF 393 renal
57.7 µM: NCI-H226 lung
56.7 µM: PC-3 prostate
72.3 µM: SK-MEL-2 melanoma
not listed: MDA-MB-231 breast | U251 CNS
> 100 µM: all other assays above

Cc1cn(CCCCOC(=O)NC(CCCNC(N)=O)C(=O)O)c(=O)[nH]c1=O (stereo not given)
not listed: MALME-3M melanoma | NCI-H522 lung | SK-MEL-5 melanoma | A498 renal
> 100 µM: all other assays above

Cc1cc(O)c(O)c(Oc2cc(C)cc(O)c2O)c1
26.6 µM: NCI-H460 lung
43.5 µM: SR leukemia
36.4 µM: COLO 205 colon
41.1 µM: HCT-116 colon | HOP-92 NSCLC | HT29 colon
28.8 µM: OVCAR-4 ovarian
36.3 µM: TK-10 renal
59.7 µM: SN12C renal
84.9 µM: T-47D breast
56.8 µM: UACC-62 melanoma
75.1 µM: NCI-H226 lung
55.5 µM: 786-0 renal
88.2 µM: RXF 393 renal
49.3 µM: M14 melanoma
45.1 µM: OVCAR-8 ovarian
79.9 µM: ACHN renal
95 µM: SF-268 CNS
5.54 µM: HL-60(TB) leukemia
34.8 µM: NCI-H522 lung
52.7 µM: MDA-MB-231 breast
69.6 µM: IGROV1 ovarian
24.6 µM: LOX IMVI melanoma
36.8 µM: EKVX NSCLC
29.3 µM: MCF7 breast
29.9 µM: HCT-15 colon
55.7 µM: SF-295 CNS
78.9 µM: BT-549 breast
7.46 µM: CCRF-CEM leukemia
not listed: MALME-3M melanoma | NCI/ADR-RES ovarian
> 100 µM: all other assays above
